From patent US12214058B2, “Imaging methods using deuterated compounds” (Genentech, Inc., priority 2014, dated 2025)

Assay: Microsomal stability assay, mouse liver microsomes
Format: in vitro ADME
Conditions: radiolabeled, 5 min, n=3
Method: Microsomal stability assays The tracer [^18F][A]-d2 or [^18F][A] was dissolved in potassium phosphate (Kpi) buffer (100 mM) at concentration 500-600 μCi/mL. The non-radioactive 7 and 10 were dissolved in Kpi buffer at 10 μM concentration. The reaction vessel was charged with human or mouse liver microsome suspension (12.5 μL, 20 mg/mL) followed by Kpi buffer (388 μL, 10 mM), NADPH (50 μL, 10 mM) and incubated at 37° C. for 5-10 min. A solution of the radioactive [^18F][A]-d2 or [^18F][A] (50 μL, 250-300 μCi) or non-radioactive 7 or 8 (50 μL, 10 μM) were added to the reaction vessel and the mixture was incubated at 37° C. Aliquots (50 μL) of the reaction mixture were taken at 5, 15 and 45 minutes post addition of the tested compound, mixed with ice-cold acetonitrile (100 μL) and centrifuged. The supernatant was analyzed by LCMS (System E).

amount of parent compound: 2.0±0.3%
Compound: [2H]C([2H])([18F])CC1CCN(c2ccn3c(n2)nc2ccccc23)CC1 [[^18F][A]-d2, 1,1-dideutero-2-(1-(benzo[4,5]imidazo[1,2-a]pyrimidine-2-yl)piperidin-4-yl)-1-[^18F]fluoroethane]
